Experimental data from PubChem BioAssay (NCI).
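Values below derive from 48-hour exposures of cells grown in 96-well plates, with endpoints linearly interpolated between the two concentrations bracketing the appropriate inhibition level. At the GI50, growth is halved. The concentration for full growth arrest is given as TGI.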

Key:
Assay in all cases: DTP human tumour cell line panel, 48 h
[1] = system: 786-0 renal
[2] = system: A498 renal
[3] = system: A549 NSCLC
[4] = system: ACHN renal
[5] = system: BT-549 breast
[6] = system: CAKI-1 renal
[7] = system: CCRF-CEM leukemia
[8] = system: COLO 205 colon
[9] = system: DU-145 prostate
[10] = system: EKVX NSCLC
[11] = system: HCC-2998 colon
[12] = system: HCT-116 colon
[13] = system: HCT-15 colon
[14] = system: HL-60(TB) leukemia
[15] = system: HOP-62 NSCLC
[16] = system: HOP-92 NSCLC
[17] = system: HS 578T breast
[18] = system: HT29 colon
[19] = system: IGROV1 ovarian
[20] = system: K-562 leukemia
[21] = system: KM12 colon
[22] = system: LOX IMVI melanoma
[23] = system: M14 melanoma
[24] = system: MALME-3M melanoma
[25] = system: MCF7 breast
[26] = system: MDA-MB-231 breast
[27] = system: MDA-MB-435
[28] = system: MOLT-4 leukemia
[29] = system: NCI-H226 lung
[30] = system: NCI-H23 lung
[31] = system: NCI-H460 lung
[32] = system: NCI-H522 lung
[33] = system: NCI/ADR-RES ovarian
[34] = system: OVCAR-3 ovarian
[35] = system: OVCAR-4 ovarian
[36] = system: OVCAR-5 ovarian
[37] = system: OVCAR-8 ovarian
[38] = system: PC-3 prostate
[39] = system: RPMI-8226 leukemia
[40] = system: RXF 393 renal
[41] = system: SF-268 CNS
[42] = system: SF-295 CNS
[43] = system: SF-539 CNS
[44] = system: SK-MEL-2 melanoma
[45] = system: SK-MEL-28 melanoma
[46] = system: SK-MEL-5 melanoma
[47] = system: SK-OV-3 ovarian
[48] = system: SN12C renal
[49] = system: SNB-19 CNS
[50] = system: SR leukemia
[51] = system: SW-620 colon
[52] = system: T-47D breast
[53] = system: TK-10 renal
[54] = system: U251 CNS
[55] = system: UACC-257 melanoma
[56] = system: UACC-62 melanoma
[57] = system: UO-31 renal

## O=C1c2cccc3cccc(c23)C(=O)N1CCCCOc1ccc(-c2nc3ccc(N4CCOCC4)cc3[nH]2)cc1
[1]
  GI50: 1.28 µM
  TGI: 2.68 µM
[2]
  GI50: 3.38 µM
  TGI: 20.2 µM
[3]
  GI50: 3.77 µM
  TGI: > 84.4 µM
[4]
  GI50: 15.2 µM
  TGI: 29.2 µM
[5]
  GI50: 1.49 µM
  TGI: 3.15 µM
[6]
  GI50: 11.6 µM
  TGI: 27 µM
[7]
  GI50: 2.91 µM
  TGI: > 28.2 µM
[8]
  GI50: 3.78 µM
  TGI: 13.7 µM
[9]
  GI50: 3.86 µM
  TGI: 15.8 µM
[10]
  GI50: 17.6 µM
  TGI: > 57.9 µM
[11]
  GI50: 5.25 µM
  TGI: > 47.8 µM
[12]
  GI50: 1.76 µM
  TGI: 3.32 µM
[13]
  GI50: 2.14 µM
  TGI: 8.01 µM
[14]
  GI50: 2.29 µM
  TGI: 4.55 µM
[15]
  GI50: 2.47 µM
  TGI: 5.9 µM
[16]
  GI50: 2 µM
  TGI: 4.37 µM
[17]
  GI50: 2.16 µM
  TGI: 14.7 µM
[18]
  GI50: 2.23 µM
  TGI: > 35.3 µM
[19]
  GI50: 11.1 µM
  TGI: 66.9 µM
[20]
  GI50: 3.25 µM
  TGI: 9.47 µM
[21]
  GI50: 2.88 µM
[22]
  GI50: 2.11 µM
  TGI: 4.53 µM
[23]
  GI50: 2.88 µM
  TGI: 7.55 µM
[24]
  GI50: 0.558 µM
  TGI: 3.21 µM
[25]
  GI50: 2.92 µM
  TGI: 12.8 µM
[26]
  GI50: 3.27 µM
  TGI: 10.5 µM
[27]
  GI50: 2.04 µM
  TGI: 4.54 µM
[28]
  GI50: 2.95 µM
  TGI: > 100 µM
[29]
  GI50: 25.6 µM
  TGI: 47.6 µM
[30]
  GI50: 6.7 µM
  TGI: 23.5 µM
[31]
  GI50: 3.42 µM
  TGI: 16.1 µM
[32]
  GI50: 15.1 µM
  TGI: 41.2 µM
[33]
  GI50: 10.3 µM
  TGI: > 83.9 µM
[34]
  GI50: 5.05 µM
  TGI: 11.2 µM
[35]
  GI50: 1.8 µM
  TGI: 4.08 µM
[36]
  GI50: 18.9 µM
  TGI: 34.9 µM
[37]
  GI50: 6.21 µM
  TGI: > 75.1 µM
[38]
  GI50: 3.16 µM
  TGI: 23.6 µM
[39]
  GI50: 1.27 µM
  TGI: 4.39 µM
[40]
  GI50: 0.547 µM
  TGI: 3 µM
[41]
  GI50: 7.35 µM
  TGI: > 69.6 µM
[42]
  GI50: 1.63 µM
[43]
  GI50: 1.65 µM
  TGI: 3.47 µM
[44]
  GI50: 15.7 µM
  TGI: 53.6 µM
[45]
  GI50: 1.42 µM
  TGI: 2.86 µM
[46]
  GI50: 1.6 µM
  TGI: 3.06 µM
[47]
  GI50: 31.2 µM
  TGI: > 54 µM
[48]
  GI50: 5.56 µM
  TGI: 12.1 µM
[49]
  GI50: 7.91 µM
  TGI: > 48.5 µM
[50]
  GI50: 2.35 µM
  TGI: > 100 µM
[51]
  GI50: 3.78 µM
  TGI: 12.3 µM
[52]
  GI50: 3.08 µM
  TGI: 15.9 µM
[53]
  GI50: 3.57 µM
  TGI: 13.4 µM
[54]
  GI50: 1.53 µM
  TGI: 4.56 µM
[55]
  GI50: 5.06 µM
  TGI: 27.9 µM
[56]
  GI50: 1.72 µM
  TGI: 3.2 µM
[57]
  GI50: 10.8 µM
  TGI: > 35.2 µM
